In patent US7605265B2, “Heterodimers and methods of using them” (priority 2007, dated 2009):

Tests used:
[1] = molecular target: T1, acetylcholinesterase (AChE) (Rattus norvegicus, UniProt P37136); experiment: In vitro inhibition of AChE (cholinesterase assay, Ellman method); format: biochemical
T1 construct: from tissue; host or cells: rat brain cortex
T1 sequence (P37136 32-614): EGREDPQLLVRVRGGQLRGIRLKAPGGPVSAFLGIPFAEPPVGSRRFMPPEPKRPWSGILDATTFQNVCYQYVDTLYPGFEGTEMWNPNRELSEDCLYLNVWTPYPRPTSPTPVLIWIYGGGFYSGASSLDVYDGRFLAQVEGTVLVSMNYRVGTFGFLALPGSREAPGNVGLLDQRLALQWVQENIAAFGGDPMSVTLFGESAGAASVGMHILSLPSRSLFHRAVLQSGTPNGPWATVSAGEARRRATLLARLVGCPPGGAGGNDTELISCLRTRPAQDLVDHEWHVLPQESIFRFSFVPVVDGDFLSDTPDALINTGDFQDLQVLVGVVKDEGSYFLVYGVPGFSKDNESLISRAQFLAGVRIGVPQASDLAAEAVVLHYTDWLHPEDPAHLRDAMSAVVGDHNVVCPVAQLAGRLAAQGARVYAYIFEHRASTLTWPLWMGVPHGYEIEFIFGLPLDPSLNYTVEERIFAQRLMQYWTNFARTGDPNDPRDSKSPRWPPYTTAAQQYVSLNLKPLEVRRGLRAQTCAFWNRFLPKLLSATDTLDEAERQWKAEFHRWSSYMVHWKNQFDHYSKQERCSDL
Method: The in vitro inhibition of the enzymes acetylcholinesterase (AChE) and butyrylcholinesterase (BChE) were assessed. BChE, like AChE, breaks down acetylcholine (ACh) but is found in plasma and other organs such as the liver, skin and gastrointestinal tract.
The enzymes, AChE and BChE, used in the inhibition studies were prepared from the cortex and serum of decapitated rats, respectively.

[2] = molecular target: T2, butyrylcholinesterase (BChE) (Rattus norvegicus, UniProt Q9JKC1); experiment: biochemical
T2 construct: from tissue; host or cells: rat serum

[3] = tested on: scopolamine-induced memory impaired rats; experiment: Morris water maze, scopolamine-induced memory impairment; format: in vivo, rat; settings: tacrine 1.5 mg/kg, scopolamine 0.1 mg/kg i.p.
Method: The Morris water maze consists of a water pool with a hidden, submerged escape platform. The rats must learn, over a period of consecutive days, the location of the platform using either contextual or local cues. The time taken to locate the hidden platform (escape latency) is a measure of the animal's cognitive abilities.
(§1) Scopolamine (0.1 mg/kg) was first i.p. administered to young adult rats to impair their memories. Scopolamine-induced memory impaired rats were then orally administered one of three different doses of compound B (0.025, 0.050, or 0.100 mg/kg) and subjected to the Morris water maze over a period of 4 days. On each day, the time taken for the rats to detect the hidden platform in the water maze was measured, in seconds.
as §1, with “C (0.1, 0.2,” for “B (0.025, 0.050,”, “0.4” for “0.100”
as §1, with “A (0.1, 0.2,” for “B (0.025, 0.050,”, “0.4” for “0.100”
A spatial bias (% of total distance swum in the training quadrant during spatial probe trial) for the region of the apparatus where the platform was positioned during training was also measured for compounds B and C.
The spatial bias for the region of the testing apparatus where the hidden platform was positioned during training was measured. […] Tacrine (THA) was included for comparison purposes.

T2 sequence (Q9JKC1 24-597): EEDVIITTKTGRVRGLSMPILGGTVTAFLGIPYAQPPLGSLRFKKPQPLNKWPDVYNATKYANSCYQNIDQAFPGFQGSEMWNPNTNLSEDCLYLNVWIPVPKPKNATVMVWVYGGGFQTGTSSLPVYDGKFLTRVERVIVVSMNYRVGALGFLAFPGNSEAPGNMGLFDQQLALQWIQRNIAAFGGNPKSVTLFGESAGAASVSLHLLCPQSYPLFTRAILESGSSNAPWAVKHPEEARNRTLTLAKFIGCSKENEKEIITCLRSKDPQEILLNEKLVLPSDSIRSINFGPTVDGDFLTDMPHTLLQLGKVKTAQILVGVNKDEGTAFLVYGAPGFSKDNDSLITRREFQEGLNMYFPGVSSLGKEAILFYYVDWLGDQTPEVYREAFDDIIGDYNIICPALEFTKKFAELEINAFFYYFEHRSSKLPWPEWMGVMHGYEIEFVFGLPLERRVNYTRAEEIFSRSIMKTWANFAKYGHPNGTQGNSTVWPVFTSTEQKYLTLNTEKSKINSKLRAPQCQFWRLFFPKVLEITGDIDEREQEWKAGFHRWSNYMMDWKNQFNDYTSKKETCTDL

SMILES | Selectivity AchE* ([1]; IC50 (BChE)/IC50 (AChE)) | IC50 ([1]; enzyme prepared from rat cortex) [µM] | IC50 [2] [µM] | escape latency, compared with the novel compound [3]
O=c1ccc2c([nH]1)CCCC2NCCCCCCCCNc1c2c(nc3ccccc13)CCCC2 (stereo not shown) [Compound D] | 31.52 | 0.0136 ± 0.00176 | 0.43 ± 0.0467 | –
Nc1c2c(nc3ccccc13)CCCC2 [Tacrine, reference compound] | – | – | – | less effective in shortening escape latency
